Broadly, the pKa is the pH at which an ionisable group is half protonated.

The results in this text go back to article PMC4237514, “Novel amino-β-lactam derivatives as potent cholesterol absorption inhibitors” (European Journal of Medicinal Chemistry, 2014).

The nature of data set [1]: MTT cytotoxicity assay in HepG2 cells. It is filed as cell-based. The conditions noted are these: human, read-out: LC50, HepG2. The method, then: (§1) Cytotoxicity of amino alcohols 5, 6 and their diastereoisomeric mixture 5/6 was analyzed using MTT cell proliferation assay and the LC50 values were determined in MDCKII wild type, hNPC1L1/MDCKII, and HepG2 cells (Table 2). MDCKII cells stably expressing human Niemann-Pick C1-like protein 1 (hNPC1L1/MDCKII) (Figure S1) are a pharmacologically validated system for investigating NPC1L1-mediated cholesterol uptake. The LC50 values were higher than 100 μM and considered nontoxic in all three cell lines. […] In addition, we tested the in vitro cytotoxicity of ezetimibe 1 and compounds 5, 6, and 5/6 (70:30) in combination with micelles and found all LC50 values to be above 100 μM (Figure S2).
(§2) Madin–Darby Canine Kidney II (MDCKII) cells, MDCKII cells stably expressing human NPC1L1 (hNPC1L1/MDCKII), and human HepG2 liver cells were maintained in DMEM (Dulbecco's Modified Eagle Medium, Invitrogen, USA) containing 100 units/mL penicillin and 100 μg/mL streptomycin supplemented with 10% FCS (Sigma–Aldrich, Germany). The cells were grown at 37 °C in a humidified 5% CO2 incubator. Stable transfection of MDCKII cells with human NPC1L1 protein was performed using Lipofectamine LTX (Invitrogen, USA) according to the manufacturer's protocol. Selection with 1 mg/mL G418 (Sigma–Aldrich, Germany) was started 2 days after transfection. The concentration of G418 was decreased to 500 μg/mL after 14 days. Stably transfected cells were maintained in DMEM containing 100 units/mL penicillin and 100 μg/mL streptomycin supplemented with 10% FCS and 500 μg/mL G418.
MDCKII, hNPC1L1/MDCKII, and HepG2 cells were seeded in 96-well microtiter plates on day 0 at densities of 3000 cells/well. On day 1, tested compounds (73 mM stock solution in DMSO) were added in five consecutive 10-fold dilutions (10^−8 to 10^−4 mol/L) and incubated for 72 h. Cytotoxicity of the compounds was assessed on day 4 by the MTT cell proliferation assay (Sigma–Aldrich, Germany) which detects mitochondrial dehydrogenase activity in viable cells. The results are expressed as LC50 and the values for each compound were calculated from dose–response curves using linear regression analysis. Each concentration was tested in quadruplicate in three independent experiments. Toxicity of the compounds in combination with micelles was also tested using the same method. MDCKII and hNPC1L1/MDCKII were seeded in 96-well microtiter plates (150 μL medium/well) at a density of 2 × 10^5 cells/mL medium 24 h before the experiment. Micelles were prepared according to the modified method reported by Field et al.. In brief, 0.25 mM oleic acid, 50 μM cholesterol, 10 μM compactin, 50 μM mevalonate, 5 mM Na-taurocholate (Sigma–Aldrich, Germany) in DMEM/10% FCS were mixed and sonicated. […] Thereafter, cytotoxicity was determined using the MTT assay.
A general note: Formazan colour is commonly taken as a measure of viable cells.

Data set [2] can be described thus: pKa by spectrophotometric titration. The settings on record: λ 247 nm, pH 6–12, 20 °C. Format: physicochemical. The method, then:
We determined pKa values of the amino alcohols 5 (Fig. 9) and 6 (data not shown) using spectrophotometric titration.
Stock solution of amino alcohols 5 and 6 (160 μL, 2 mg/mL methanol) was added to NaCl solution in water (20 mL, 0.1 mol/L), thus resulting in a solution of each amino alcohol 5 and 6 in concentration of 4 × 10^−5 mol/L. Furthermore, solutions of NaOH (0.1 mol/L, 1 mol/L and 2 mol/L) were prepared in NaCl solution in water (100 mL, 0.1 mol/L). NaOH solutions (1.5–20 μL) were added to each solution of amino alcohol 5 or 6, pH values measured and UV spectra (λ 200–350 nm) recorded at pH 6–12. The titrations were performed at rt (20 °C) and inflection points of sigmoid curves at λ 247 nm were calculated as pKa values for both amino alcohols.

The next data set deals with MDCKII cells. The data set is described as follows: MTT cytotoxicity assay in MDCKII wild type cells. Format: cell-based. The conditions noted are these: 72 h. The procedure: as §1, §2
MDCKII, hNPC1L1/MDCKII, and HepG2 cells were seeded in 96-well microtiter plates on day 0 at densities of 3000 cells/well. On day 1, tested compounds (73 mM stock solution in DMSO) were added in five consecutive 10-fold dilutions (10^−8 to 10^−4 mol/L) and incubated for 72 h. Cytotoxicity of the compounds was assessed on day 4 by the MTT cell proliferation assay (Sigma–Aldrich, Germany) which detects mitochondrial dehydrogenase activity in viable cells. The results are expressed as LC50 and the values for each compound were calculated from dose–response curves using linear regression analysis. Each concentration was tested in quadruplicate in three independent experiments. Toxicity of the compounds in combination with micelles was also tested using the same method. MDCKII and hNPC1L1/MDCKII were seeded in 96-well microtiter plates (150 μL medium/well) at a density of 2 × 10^5 cells/mL medium 24 h before the experiment. Micelles were prepared according to the modified method reported by Field et al.. In brief, 0.25 mM oleic acid, 50 μM cholesterol, 10 μM compactin, 50 μM mevalonate, 5 mM Na-taurocholate (Sigma–Aldrich, Germany) in DMEM/10% FCS were mixed and sonicated. Following the micellar formation, compounds 1, 5, 6, and 5/6 (70:30) (73 mM stock solution in DMSO) were added to the medium and vortexed to obtain the final concentrations of the compounds (25, 50, 100, 150, 200 μM) and applied to the cells for 1 h. Thereafter, cytotoxicity was determined using the MTT assay.

Another data set has as its system MDCKII wildtype cells. In words: In vitro [3H]cholesterol uptake assay in MDCKII wildtype cells. Format: cell-based, Canine. The settings on record: Figure S3. The method, then:
Medium A contained DMEM plus 100 units/mL penicillin and 100 μg/mL streptomycin supplemented with 5% lipoprotein-deficient serum (density > 1.21 g/mL, prepared from FCS by ultracentrifugation). Cholesterol Replenishing Medium (Medium B) was prepared according to the modified method reported by Field et al.. In brief, 0.25 mM oleic acid, 50 μM free cholesterol, 10 μM compactin, 50 μM mevalonate, 5 mM Na-taurocholate (Sigma–Aldrich, Germany), and [^3H]cholesterol (0.18 μCi/mL medium, [1,2–3H(N)] cholesterol, 1 mCi/mL (ARC Inc., USA)) in Medium A were mixed and sonicated. Following the micellar formation, compounds 1, 5, 6, 5/6 (70:30), and 6/5 (85:15) (73 mM stock solution in DMSO) were added to Medium B and vortexed to obtain the final concentrations (10, 30, 60, 90, 120, 150, 200 μM).
MDCKII wildtype and hNPC1L1/MDCKII cells were seeded in 24-well plates at a density of 5 × 10^5 cells/mL medium (500 μL medium/well) in Medium A 24 h before the treatment. […] Cells were lysed and radioactivity in the lysate (100 μL) was determined by liquid scintillation counting. Protein concentrations of the lysates were determined with the DC Protein Assay (Bio-Rad, USA). The results were calculated as cpm/mg protein and expressed as percentage of inhibition compared to untreated cells. […]

Take `O=C1[C@H](NCC(O)c2ccc(F)cc2)[C@@H](c2ccc(O)cc2)N1c1ccc(F)cc1` (mixture of isomers) [5/6 (70:30), (3R,4R)-3-[(2R/S)-2-(4-fluorophenyl)-2-hydroxyethylamino]-1-(4-fluorophenyl)-4-(4-hydroxyphenyl)azetidin-2-one]: the CC50 at 72 h in data set [1] is > 100 µM.

In data set [2], `O=C1[C@H](NC[C@@H](O)c2ccc(F)cc2)[C@@H](c2ccc(O)cc2)N1c1ccc(F)cc1` [Compound 6, (3R,4R)-3-[(2S)-2-(4-fluorophenyl)-2-hydroxyethylamino]-1-(4-fluorophenyl)-4-(4-hydroxyphenyl)azetidin-2-one] came in with a pKa of 9.35. In addition, in data set [1], the CC50 at 72 h was > 100 µM.

As to `O=C1[C@H](CC[C@H](O)c2ccc(F)cc2)[C@@H](c2ccc(O)cc2)N1c1ccc(F)cc1` [Compound 1, ezetimibe, reference compound], in the data set on MDCKII cells, the “LC50, MDCKII” value is “no toxicity”. Moreover, in the data set on MDCKII wildtype cells, the “effect on cholesterol uptake” value is on record as “no effect”. Also, in data set [1] (72 h), the CC50 at 96 h was 69.7 µM.

In turn, `O=C1[C@H](NC[C@H](O)c2ccc(F)cc2)[C@@H](c2ccc(O)cc2)N1c1ccc(F)cc1` [Compound 5] gave a pKa in data set [2] of 9.35. Besides, in data set [1], the CC50 at 72 h is > 100 µM.
